Assays:
E. coli Topoisomerase IV = E. coli Topoisomerase IV (Escherichia coli, UniProt P0AFI2+P20083); test: biochemical; type: biochemical; parameters: purchased John Innes Enterprises (Norwich, UK)
Experimental: Topoisomerase IV-mediated relaxation assays and decatenation assays were performed as previously described (see Peng and Marians, 1993). […] Decatenation assays contained topoisomerase IV (4 nM), 40 mM Tris HCl pH 7.5 at 30° C., 6 mM MgCl2, 10 mM DTT, 1 mM spermidine.HCl, 100 mM potassium glutamate, 0.5 mM ATP, 0.5 mg/mL BSA, 200 ng of kinetoplast DNA, and inhibitor where appropriate.

Human topoisomerase IIα [1] = biological target: T1, Human topoisomerase IIα (Homo sapiens, UniProt P11388); test: Human topoisomerase IIα-mediated decatenation assay; type: biochemical; parameters: purchased TopoGEN Inc
Experimental: (§1) Human Topoisomerase IIα-mediated relaxation assays and decatenation assays were performed as per the manufacturer's instructions in a total of 20 μL. Relaxation assays contained Topoisomerase IIα (4.3 nM), 50 mM Tris.HCl pH 8,120 mM KCl, 10 mM MgCl2, 0.5 mM DTT, 0.5 mM ATP, 4.6 nM of supercoiled pBR322 DNA, and inhibitor where appropriate. Decatenation assays substituted the supercoiled DNA with 200 ng catenated kinetoplast DNA.
(§2) All in vitro reactions were incubated at 37° C. for 30 minutes. The DMSO concentration in each reaction was kept constant at 3.33%. Reactions were quenched with the addition of an equal volume of phenol/chloroform/isoamyl alcohol (25:24:1) and one tenth volume of loading buffer containing 40% sucrose, 100 mM Tris.HCl pH 7.5, 100 mM EDTA, 2 mg/mL bromophenol blue. The proteins were precipitated by vortexing, followed by centrifugation for 5 minutes at 16 000 g. The aqueous phase was loaded onto 1% agarose gels in Tris-acetate and were electrophoresed at 60 V for three hours in Tris-acetate buffer. The gels were stained in 1 μg/mL ethidium bromide. The gels were visualised using UV light and were documented and analysed using Syngene software.

HeLa cells = test: MTT cell viability assay, HeLa; type: cell-based, human; details: cell reads on: Active
Experimental: (§3) Human cell cultures were initiated from frozen cell stocks (the gift of Dr J. Gavrilovic, UEA). […] Both human cell lines form adherent cultures and were maintained at 37° C. in T25 culture vessels as 10 mL cultures in CO2 Independent Media containing 10% foetal bovine serum (EU approved), 4 mM L-glutamine, penicillin/streptomycin (Invitrogen). […] Media was renewed every three days.
(§4) After incubation with MTT and solubilization, the resulting coloured solution is quantified using a scanning spectrophotometer. […] Cell viability was then determined by addition of MTT reagent (20 μL) in each well, as per manufacturer's instructions and incubated for a further 4 hours. Solubilization solution (100 μL) was added per well and the plates incubated overnight at 37° C. The plates were read in a spectrophotometer (scanning from 500-650 nm, signal peak at 570 nm).

E. coli [2] = test: In vivo E. coli (Table 5-C summary of haloassays); type: cell-based; details: number = not active up to this concentration
Experimental: Lawns of cells were prepared by spreading, on top of a LB+Agar plate, 3 ml of melted LSS medium (half-agar strength: 0.3 g Agar/50 ml LB) inoculated with 100 μl of a 10 ml LB overnight culture of E. coli cells grown at 37° C. […] The plates were incubated at 37° C. overnight and growth inhibition was qualitatively analysed by measuring the diameter of each halo.

E. coli [3] = test: In vivo E. coli activity (Table 5-C); type: cell-based; details: cell reads on: Active
Experimental: In vivo activity was tested using the bioassay developed by Sinha Roy, 1999, with some modifications. The Microcin-sensitive E. coli DH5α was used as the indicator strain. Lawns of cells were prepared by spreading 100 μL of a 10 mL LB culture grown at 37° C. overnight mixed with 3 mL of LSS, on LB+agar (10 g/L) plates. […] The plates were incubated at 37° C. overnight and halos of growth inhibition were qualitatively analyzed by determining their diameters (see FIG. 9).
Lawns of cells were prepared by spreading, on top of a LB+Agar plate, 3 ml of melted LSS medium (half-agar strength: 0.3 g Agar/50 ml LB) inoculated with 100 μl of a 10 ml LB overnight culture of E. coli cells grown at 37° C. Halo assays with MccB17 generally used a DH5α strain (Novagen) but the inventors used the standard E. coli strain (K12) because it is from this strain that the microcin B17-resistant mutant W751R was obtained. […] The plates were incubated at 37° C. overnight and growth inhibition was qualitatively analysed by measuring the diameter of each halo.
Haloassays were performed as described above.

HT-29 cells = test: MTT cell viability assay, HT-29; type: cell-based, human; details: cell reads on: Active
Experimental: as §3, §4

[4] = system: Arabidopsis thaliana ecotype Columbia plants; test: Effects on A. thaliana seedlings and plants; type: in vivo; details: Table 5-C
Experimental: The microcin derivatives were tested for efficacy in planta against Arabidopsis thaliana ecotype Columbia according to known methods (see Wall et al., 2004). Seeds were germinated on sterile media containing the appropriate peptide and the effects were observed over a three week period. […] In […] seeds, such as A. thaliana, during imbibition the quiescent seed rapidly resumes metabolic and respiratory activity. One of the first steps, as part of this process, is the initiation of mitochondrial DNA synthesis which requires DNA gyrase and which may explain the exquisite sensitivity of the germinating seeds to Peptides 1 and 2.
The leaf tissue initially turned yellow, followed by rapid necrosis of the tissue (see FIG. 32). […] The high hydrophility of Peptide 1 may preferentially allow the compound to readily diffuse through the leaf cuticle and epidermis to the mesophyll and phloem below.
The heterocyclic compounds were also spotted onto the leaves of 4 week old, tissue culture grown Arabidopsis thaliana ecotype Columbia plants (see FIG. 34, panels A-1). […] The browning and necrosis diffused through the full thickness of the leaf over the next 60 minutes (see FIG. 34, panel F) and spread towards the meristem (see FIG. 34, panels E, F, H). Complete necrosis of the meristem and newly emerged leaves, where organellar replication takes place, was complete within 24 hours (see FIG. 34, panel F).

Human topoisomerase IIα [5] = biological target: T1, Human topoisomerase IIα; test: Human Topoisomerase IIα-mediated relaxation assay; type: biochemical; parameters: purchased TopoGEN Inc. (Port Orange, Fla., USA); details: read-out: Topo IIα Human, R (relaxation reaction) IC50
Experimental: as §1, §2

T1 sequence (P11388 whole entry): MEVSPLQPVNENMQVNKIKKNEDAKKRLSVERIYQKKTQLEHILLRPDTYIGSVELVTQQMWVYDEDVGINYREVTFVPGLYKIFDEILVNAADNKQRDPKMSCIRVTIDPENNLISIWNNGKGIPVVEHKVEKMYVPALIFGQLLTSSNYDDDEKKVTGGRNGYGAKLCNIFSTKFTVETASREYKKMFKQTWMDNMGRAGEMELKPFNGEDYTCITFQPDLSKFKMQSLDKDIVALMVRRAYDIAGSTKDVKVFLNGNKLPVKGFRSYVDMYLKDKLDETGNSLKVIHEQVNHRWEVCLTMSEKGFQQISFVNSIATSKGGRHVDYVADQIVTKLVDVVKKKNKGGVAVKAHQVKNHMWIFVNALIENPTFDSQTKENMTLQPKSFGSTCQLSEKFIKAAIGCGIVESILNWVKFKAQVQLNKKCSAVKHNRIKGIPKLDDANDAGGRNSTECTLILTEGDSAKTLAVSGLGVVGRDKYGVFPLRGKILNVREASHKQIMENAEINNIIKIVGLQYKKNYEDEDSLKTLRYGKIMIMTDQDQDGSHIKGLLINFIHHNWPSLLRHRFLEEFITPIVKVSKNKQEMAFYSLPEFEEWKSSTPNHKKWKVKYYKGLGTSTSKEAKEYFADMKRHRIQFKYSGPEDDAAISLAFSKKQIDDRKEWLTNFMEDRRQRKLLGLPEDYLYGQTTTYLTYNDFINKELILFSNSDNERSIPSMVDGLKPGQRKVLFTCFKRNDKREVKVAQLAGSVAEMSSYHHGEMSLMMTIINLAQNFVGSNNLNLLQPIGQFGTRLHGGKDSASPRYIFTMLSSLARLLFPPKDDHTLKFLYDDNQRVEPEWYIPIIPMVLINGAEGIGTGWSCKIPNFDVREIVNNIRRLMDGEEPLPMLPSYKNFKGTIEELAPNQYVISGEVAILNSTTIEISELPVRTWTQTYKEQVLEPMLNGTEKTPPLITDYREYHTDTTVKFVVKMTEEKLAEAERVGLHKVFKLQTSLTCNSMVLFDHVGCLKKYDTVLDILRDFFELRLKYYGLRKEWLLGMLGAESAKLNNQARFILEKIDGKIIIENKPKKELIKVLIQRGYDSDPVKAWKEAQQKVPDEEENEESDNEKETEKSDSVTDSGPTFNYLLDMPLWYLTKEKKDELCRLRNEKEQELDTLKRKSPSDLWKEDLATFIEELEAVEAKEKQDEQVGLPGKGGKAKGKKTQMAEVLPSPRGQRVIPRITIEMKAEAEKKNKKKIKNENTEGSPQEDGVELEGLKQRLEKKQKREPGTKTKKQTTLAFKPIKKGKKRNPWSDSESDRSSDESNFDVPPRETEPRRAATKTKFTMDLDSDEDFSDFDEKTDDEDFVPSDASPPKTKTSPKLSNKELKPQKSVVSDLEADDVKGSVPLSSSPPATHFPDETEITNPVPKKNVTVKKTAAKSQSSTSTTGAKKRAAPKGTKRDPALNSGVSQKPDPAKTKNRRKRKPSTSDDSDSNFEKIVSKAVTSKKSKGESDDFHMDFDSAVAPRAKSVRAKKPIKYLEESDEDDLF
Sequence of E. coli Topoisomerase IV (P20083 whole entry): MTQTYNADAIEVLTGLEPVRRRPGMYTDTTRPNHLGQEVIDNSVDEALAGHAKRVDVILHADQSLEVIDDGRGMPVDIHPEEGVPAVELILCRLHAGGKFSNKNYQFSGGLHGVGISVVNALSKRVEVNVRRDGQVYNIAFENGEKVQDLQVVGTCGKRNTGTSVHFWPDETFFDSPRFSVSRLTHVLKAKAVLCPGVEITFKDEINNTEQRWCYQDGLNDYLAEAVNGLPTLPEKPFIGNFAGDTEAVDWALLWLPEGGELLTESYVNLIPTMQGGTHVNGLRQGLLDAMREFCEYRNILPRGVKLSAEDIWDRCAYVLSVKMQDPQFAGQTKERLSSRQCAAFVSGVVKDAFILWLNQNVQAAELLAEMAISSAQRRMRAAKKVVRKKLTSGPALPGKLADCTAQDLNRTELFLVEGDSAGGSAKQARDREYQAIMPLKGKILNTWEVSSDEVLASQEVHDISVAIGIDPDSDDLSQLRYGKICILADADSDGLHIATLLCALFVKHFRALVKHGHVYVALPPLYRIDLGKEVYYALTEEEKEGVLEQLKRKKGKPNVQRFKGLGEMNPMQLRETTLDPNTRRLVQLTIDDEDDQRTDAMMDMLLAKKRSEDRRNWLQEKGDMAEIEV
Sequence of E. coli Topoisomerase IV (P0AFI2 whole entry): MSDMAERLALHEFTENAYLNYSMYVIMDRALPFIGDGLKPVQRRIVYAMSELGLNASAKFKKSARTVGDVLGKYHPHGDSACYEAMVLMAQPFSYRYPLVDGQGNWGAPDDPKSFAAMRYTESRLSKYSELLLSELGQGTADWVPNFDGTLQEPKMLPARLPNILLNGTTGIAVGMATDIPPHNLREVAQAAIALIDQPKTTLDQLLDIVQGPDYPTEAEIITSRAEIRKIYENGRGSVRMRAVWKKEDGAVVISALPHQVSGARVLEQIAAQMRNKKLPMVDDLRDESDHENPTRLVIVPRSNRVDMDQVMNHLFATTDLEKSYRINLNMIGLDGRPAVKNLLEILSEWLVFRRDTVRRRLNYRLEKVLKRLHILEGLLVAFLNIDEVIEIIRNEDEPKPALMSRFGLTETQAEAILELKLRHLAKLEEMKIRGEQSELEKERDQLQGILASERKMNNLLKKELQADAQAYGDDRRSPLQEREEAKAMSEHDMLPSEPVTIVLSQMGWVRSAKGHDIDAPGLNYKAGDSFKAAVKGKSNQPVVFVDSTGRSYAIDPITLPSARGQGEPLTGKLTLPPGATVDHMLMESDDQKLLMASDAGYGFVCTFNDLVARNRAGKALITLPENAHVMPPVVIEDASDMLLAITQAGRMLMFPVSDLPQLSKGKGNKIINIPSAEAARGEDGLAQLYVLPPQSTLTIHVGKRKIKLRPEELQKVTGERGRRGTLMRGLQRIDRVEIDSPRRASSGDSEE

For `CC(C)(C)OC(=O)NCc1nc(C(=O)O)co1` [#6], the “Topo IV, D (decatenation reaction) IC50” value (E. coli Topoisomerase IV) was “weakly”, the IC50 (E. coli Topoisomerase IV; read-out: Topo IV, D (decatenation reaction) IC50) was 200 µM and the “Decatenation activity of eukaryotic topoisomerase IIα, sensitivity” value (Human topoisomerase IIα [1]) was “albeit weakly”. For the same molecule, the “In vivo HeLa Cells activity” value (HeLa cells) was “Not”, the “In vivo E. coli” value (E. coli [2]) was “(→400 μM)” and the “In vivo E. coli activity, up to 400 μM” value (E. coli [3]) was “Not”. The “In vivo HT29 Cells activity” value (HT-29 cells) was “Not”, the “In vivo Plants, P (whole plants, expanded Arabidopsis leaves)” value [4] was “P > 300 μM” and the IC50 (Human topoisomerase IIα [5]) was > 250 µM.
